The values below come from US5547960A (Mayo Foundation for Medical Education and Research, priority 1994, dated 1996).

Read-outs that look alike come from different tables or passages of the source.

For one data set, the target named is T1, FBS AChE (Bos taurus, UniProt P23795).
T1 construct: FBS AChE; from tissue; host or cells: fetal bovine serum (FBS read as this abbreviation)
T1 sequence (P23795 31-613): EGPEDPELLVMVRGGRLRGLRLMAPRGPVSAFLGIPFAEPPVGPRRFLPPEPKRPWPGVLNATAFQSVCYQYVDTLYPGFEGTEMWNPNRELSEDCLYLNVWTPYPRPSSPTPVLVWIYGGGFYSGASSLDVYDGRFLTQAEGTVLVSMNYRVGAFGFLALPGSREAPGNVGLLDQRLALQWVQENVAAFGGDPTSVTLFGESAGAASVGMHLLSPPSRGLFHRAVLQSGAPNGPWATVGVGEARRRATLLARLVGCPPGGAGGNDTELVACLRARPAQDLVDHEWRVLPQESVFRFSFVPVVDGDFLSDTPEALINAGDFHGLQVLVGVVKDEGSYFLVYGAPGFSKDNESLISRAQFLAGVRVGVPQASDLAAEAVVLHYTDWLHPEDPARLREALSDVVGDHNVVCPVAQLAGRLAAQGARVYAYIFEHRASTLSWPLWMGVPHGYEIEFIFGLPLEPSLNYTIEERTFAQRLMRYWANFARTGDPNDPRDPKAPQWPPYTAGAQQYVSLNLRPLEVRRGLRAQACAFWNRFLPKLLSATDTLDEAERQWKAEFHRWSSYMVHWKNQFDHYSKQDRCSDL
The data set can be described thus: Inhibition of AChE (dissociation constant Ki, procedure of Y. Ashani et al.). In kind it is biochemical.

Data set [1] deals with acetylcholinesterase (ACHE). To be noted: cited from earlier work.
Data set [2] has as its system AChE. To be noted: relative to (±)-huperzine A; U.S. Pat. No. 4,929,731; cited from earlier work.
The subject of a further data set is mice. To be noted: G. P. Vincent et al., 1987; cited from earlier work.
For a further data set, the system named is squirrel monkeys. To be noted: G. P. Vincent et al., 1987; cited from earlier work.
The next data set concerns myasthenia gravis. The note with it: 128 patients suffering from myasthenia gravis; Y. S. Cheng, 1986; cited from earlier work.
Data set [3] deals with AChE. The note with it: 0.65 mg/kg i.m., cited from earlier work.
A further data set concerns Alzheimer's disease. The note with it: K. L. Davis, NIA meeting, Jan. 8-10, 1990; cited from earlier work.
The mark [4] stands for this setting: procedure of Y. Ashani et al., Molecular Pharmacol., 45, 555 (1994), read-out: FBS AChE Ki, dissociation constant for inhibition of AChE.

Description for FBS AChE: *Dissociation constant (Ki) for inhibition of AChE determined

For the compound `C/C=C1\C2C=C(C)CC1(N)c1ccc(=O)[nH]c1C2CCCC` (stereo not shown) [Compound 8e, (11E)-5-Amino-10-butyl-11-ethylidene-5,6,9,10-tetrahydro-7-methyl-5,9-methanocycloocta[b]pyridin-2(1H)-one], the Ki at FBS AChE (setting [4]) was determined as 192 µM.

In the case of `C/C=C1\C2C=C(C)CC1(N)c1ccc(=O)[nH]c1C2C` (stereo not shown) [Compound 8b, (11E)-5-Amino-11-ethylidene-5,6,9,10-tetrahydro-7,10-dimethyl-5,9-methanocycloocta[b]pyridin-2(1H)-one], at FBS AChE (setting [4]), the Ki was found to be 0.008 ± 0.002 µM.

In the case of `CC1=CC2Cc3[nH]c(=O)ccc3C3(C1)NCCCC23` (stereo not shown) [huperzine B], the “usefulness as ACHE inhibitors relative to THA and physostigmine” value in data set [1] was “appear superior to THA and physostigmine”.

Regarding `C=CCC1c2[nH]c(=O)ccc2C2(N)CC(C)=CC1/C2=C\C` (stereo not shown) [Compound 8a, (11E)-10-Allyl-5-amino-11-ethylidene-5,6,9,10-tetrahydro-7-methyl-5,9-methanocycloocta[b]pyridin-5(1H)-one], on FBS AChE (setting [4]), the Ki is 275 µM.

In the case of `C/C=C1\C2C=C(C)CC1(N)c1ccc(=O)[nH]c1C2CC` (stereo not shown) [Compound 8c, (11E)-5-Amino-10-ethyl-11-ethylidene-5,6,9,10-tetrahydro-7-methyl-5,9-methanocycloocta[b]pyridin-2(1H)-one], on FBS AChE, affinity was put at a Ki of 2.04 µM.

Consider `CC=C1C2C=C(C)CC1(CN)c1ccc(=O)[nH]c1C2` (stereo not shown), for which the “times less potent than (±)-huperzine A as an inhibitor of AChE” value in the data set on AChE [2] is “about 166 times”.

On to `C/C=C1\C2C=C(C)CC1(N)c1ccc(=O)[nH]c1C2CCC` (stereo not shown) [Compound 8d, (11E)-5-Amino-11-ethylidene-5,6,9,10-tetrahydro-7-methyl-10-propyl-5,9-methanocycloocta[b]pyridin-2(1H)-one], for which the Ki at FBS AChE (setting [4]) amounted to 207 µM.

Turning to `CC=C1C2C=C(C)CC1(N)c1ccc(=O)[nH]c1C2` (single isomer, unassigned) [huperzine A], the “cognition enhancement in mice” value with mice is recorded as “effective cognition enhancer”. Also, in the data set with squirrel monkeys, the “cognition enhancement in squirrel monkeys” value is “effective cognition enhancer”. In the data set on myasthenia gravis, the “cases in which clinical manifestations of myasthenia gravis are controlled” value is given as 99%.

Consider `CNC(=O)Oc1ccc2c(c1)[C@]1(C)CCN(C)[C@@H]1N2C` [physostigmine], for which, in the data set with AChE [3] (X. C. Tang et al., 1989), the “maximal duration of AChE inhibitory action” value was no more than 60 min. Besides, in the data set on AChE [3], the side effects result is on record as “considerable side effects”. In addition, the cognitive improvement entry with Alzheimer's disease is on record as “modest cognitive improvement”.

In general, Ki refers to a dissociation constant, usually derived from enzyme kinetics or from competition with a known ligand.
